This is an account of results in patent publication US6534650B2, “Benzisoxazole and 4-amidino-3-hydroxyphenyl chemical intermediates” (Eli Lilly and Company, priority 1996, dated 2003).

The target of one data set is human thrombin (Homo sapiens, UniProt P00734). The experiment in a line: Inhibition of the amidase activity of thrombin (chromogenic substrate), Kass. The format is biochemical. The settings on record: purified human thrombin, N-benzoyl-L-Phe-L-Val-L-Arg-p-nitroanilide substrate, pH 7.4; mean over a range of concentrations. The protocol:
The assay is carried out by mixing 50 μl buffer (0.03M Tris, 0.15M NaCl, pH 7.4) with 25 μl of human thrombin solution (purified human thrombin, Enzyme Research Laboratories, South Bend, Ind., at 8 NIH units/ml) and 25 μl of test compound in a solvent (50% aqueous methanol (v:v)). Then 150 μl of an aqueous solution of the chromogenic substate (at 0.25 mg/ml) are added and the rates of hydrolysis of the substrate are measured by monitoring the reactions at 405 nm for the release of p-nitroaniline. Standard curves are constructed by plotting free thrombin concentration against hydrolysis rate. The hydrolysis rates observed with test compounds are then converted to “free thrombin” values in the respective assays by use of the standard curves. The bound thrombin (bound to test compound) is calculated by subtracting the amount of free thrombin observed in each assay from the known initial amount of thrombin used in the assay. The amount of free inhibitor in each assay is calculated by subtracting the number of moles of bound thrombin from the number of moles of added inhibitor (test compound).
The Kass value is the hypothetical equilibrium constant for the reaction between thrombin and the test compound (I). [formula]
Kass is calculated for a range of concentrations of test compounds and the mean value reported in units of liter per mole. […] For example, each of the particularly preferred examples of the invention listed above was determined to have a Kass of at least 100×10^6 L/mole.

Data set [1] has as its system thrombin time (TT) in test plasma. Nature of the data set: Anticoagulation determination: thrombin time (TT) in plasma. To be noted: compound added to plasma; linear extrapolation to doubling of the clotting time. Type of data set: biochemical. The protocol:
Dog plasma and rat plasma are obtained from conscious mixed-breed hounds (either sex, hazelton-LRE, Kalamazoo, Mich., U.S.A.) or from anesthetized male Sprague-Dawley rats (Harlan Sprague-Dawley, Inc., Indianapolis, Ind., U.S.A.) by venipuncture into 3.8 percent citrate. Fibrinogen is prepared from in-date ACD human blood as the fraction I-2 according to previous procedures and specifications. Smith, Biochem. J., 185, 1-11 (1980); and Smith, et al., Biochemistry, 11, 2958-2967 (1972). Human fibrinogen is also purchased as 98 percent pure/plasmin free from American Diagnostica, Greenwich, Conn. Coagulation reagents ACTIN, Thromboplastin, and Human plasma are from Baxter Healthcare Corp., Dade Division, Miami, Fla. Bovine thrombin from Parke-Davis (Detroit, Mich.) is used for coagulation assays in plasma.
Coagulation assay procedures are as previously described. Smith, et al., Thrombosis Research, 50, 163-174 (1988). A CoAScreener coagulation instrument (American LABor, Inc.) is used for all coagulation assay measurements. The thrombin time (TT) is measured by adding 0.05 ml saline and 0.05 ml thrombin (10 NIH units/ml) to 0.05 ml test plasma. The activated partial thromboplastin time (APTT) is measured by incubation of 0.05 ml test plasma with 0.05 ml Actin reagent for 120 seconds followed by 0.05 ml CaCl2 (0.02M). The prothrombin time (PT) is measured by adding 0.05 ml saline and 0.05 ml Thromboplastin-C reagent to 0.05 ml test plasma. The compounds of formula I are added to human or animal plasma over a wide range of concentrations to determine prolongation effects on the TT, APTT and PT assays. Linear extrapolations are performed to estimate the concentrations required to double the clotting time for each assay. Each of the particularly preferred examples of the invention listed above was determined to have a TT value of less than 50 ng/mL. For example, the respective values (in ng/mL) for TT were 6, 6 and 23 for the compounds of Examples 1, 3 and 5.

Data set [2] is described as follows: Octanol/water distribution coefficient logD at pH 7.4. The format is physicochemical.

The structures appear in SMILES notation. Where a name gives a salt, the structure may show the parent alone. Read-outs that look alike come from different tables or passages of the source.

As to `N=C(N)c1ccc(CNC(=O)[C@@H]2CCCN2C(=O)[C@H](N)CC2CCCCC2)cc1O` [Example 1, D-cyclohexylalanyl-N-[[4-(aminoiminomethyl)-3-hydroxyphenyl]methyl]-L-prolinamide dihydrochloride], at human thrombin, the “Kass (hypothetical equilibrium constant for the reaction between thrombin and the test compound)” value (shortened to “Kass”) is 7.7e+08 L/mol. Besides, the “TT (concentration required to double the thrombin clotting time)” value (from here on “TT”) in data set [1] is listed as 6 ng/mL.

For `N=C(N)c1ccc(CNC(=O)[C@@H]2CCCN2C(=O)[C@@H](CC2CCCCC2)NCC(=O)O)cc1O` [Example 3, N-carboxymethyl-D-cyclohexylalanyl-N-[[4-(aminoiminomethyl)-3-hydroxyphenyl]methyl]-L-prolinamide hydrochloride], the “Kass” value at human thrombin is 1,200×10^6 L/mole. Further, the “TT” value in data set [1] is reported as 6 ng/mL. Further, in data set [2] (change versus the corresponding amidino-phenyl compound), the “ΔlogD(7.4)” value is given as 1.13 log units. For the same compound, the logD (in general, lipophilicity at a set pH, counting ionised and neutral species) in data set [2] (octanol/water distribution coefficient, read-out: logD(7.4)) turned out to be 0.55.

Take `CCS(=O)(=O)N[C@H](CC1CCCCC1)C(=O)N1CCC[C@H]1C(=O)NCc1ccc(C(=N)N)c(O)c1` [Example 5, N-ethylsulfonyl-D-cyclohexylalanyl-N-[[4-(aminoiminomethyl)-3-hydroxyphenyl]methyl]-L-prolinamide hydrochloride]: the “Kass” value on human thrombin was 1e+08 L/mol. Further, the “TT” value in data set [1] was 23 ng/mL. In data set [2], the logD was 1.91 and the “ΔlogD(7.4)” value turned out to be 5.80 log units.
